Source: US10617769B2, “Bacterium-contained hydrogel and method of making the same” (TCI Co., Ltd., priority 2016, dated 2020)
Converted amounts (≈) assume the structure as drawn.

What was measured:
USA300 [1] = settings: in vitro and in vivo; stated as known; cited from earlier work
USA300 [2] = test: Minimum bactericidal concentration (MBC) assay, anti-USA300 activity of SCFAs; format: cell-based, Staphylococcus aureus; settings: USA300 10^6 CFU/mL, overnight incubation, tested 0.02 mM to 100 mM; for MBC: Staphylococcus aureus
Protocol: Experimental method: USA 300 (10^6 CFU/m L) were respectively incubated with different concentrations of butyric acid or acetic acid on 96-well microtiter plates overnight; the testing concentrations of acetic acid and butyric acid were from 0.02 mM to 100 mM, each well was respectively added 100 microliters of acetic acid or butyric acid with different concentrations. In the control groups, only PBS was added to the wells. After incubation, the USA300 was diluted 1:10^0 to 1:10^5 with PBS, 5 μl of the dilution was spread to the agar plate; after overnight incubation, colonies (CFU) on the algal plate were counted. MBC is defined as the degree of sterilization at 99.9% (greater than […] colony/mL).
Referring to FIG. 4A through FIG. 4D. FIG. 4A and FIG. 4C show the images of bacterial growth on culture plates. […] UD means undetectable.

P. acnes = test: Fermentation of PEG-monosaccharide polymers in solid agar medium with phenol red; format: cell-based, Propionibacterium acnes; settings: compound (+), P. acnes added to solid agar medium
Protocol: (§1) The experimental method is described as follows: compound A and compound B were respectively added to the solid agar media, and S. epidermidis or P. acnes were added to the media, then the bacteria were incubated, and then the color of phenol red in the media were recorded.

S. epidermidis = test: as above; format: cell-based, Staphylococcus epidermidis; settings: compound (+), S. epidermidis added to solid agar medium
Protocol: as §1

SMILES	Growth of USA300 (USA300 [1])	MBC (USA300 [2]) [mM]	Concentration for complete inhibition (USA300 [2]) [mM]	Color of phenol red in the medium (P. acnes)	Color of phenol red in the medium (S. epidermidis)
CCC(=O)O [propionic acid]	suppress the growth of USA300				
CCCC(=O)O [butyric acid]		10 (≈ 881 µg/mL)	50		
C#CCOCCOCCOCCOCCOC1OC(COC(C)=O)C(OC(C)=O)C(OC(C)=O)C1OC(C)=O [Compound B, PEG5-tetra-Ac-beta-D-glucose]				Red	Yellow
CC(=O)O [acetic acid]		10 (≈ 601 µg/mL)	50		
C#CCOCCOCCOCCOCCOC1OC(CO)C(O)C(O)C1O [Compound A, propargyl-PEG5-beta-D-glucose]				Red	Yellow
